We go through 1 compound from patent US12171909B2, “Implants having a drug load of an oxysterol and methods of use” (WARSAW ORTHOPEDIC, INC., priority 2015, dated 2024).

Data set [1] concerns rat two-level spine model. As to the kind of experiment: posterolateral spinal fusion in a rat two-level spine model (radiographs, manual palpation). The class given is in vivo. The conditions noted are these: for spinal fusion (figure legend): bone growth at 4 and 8 weeks, fusion confirmed by manual palpation at 8 weeks; for bridging bone on radiographs: 4-week and 8-week timepoints, rat L3-L5; for fusion observed in rat spines (manual palpation): matrix of Oxy133, collagen and ceramic wetted with sterile water, two implants bilaterally in posterolateral space, 8-week sacrifice. Here is the method:
FIG. 6 illustrates uses of a formulation of compression resistant implants having 20 mg of Oxy133 on each side of the implant, in accordance with the implants described herein. […] Bone growth in rat test subjects can be seen after 4 and 8 weeks post-implantation, and fusion was confirmed by manual palpation of the spine segments at 8 weeks. […] A dry composition of a matrix containing Oxy133, collagen and ceramic as described herein was prepared and wetted with sterile water to be implanted in rat spines as shown in FIG. 6. The wetted matrix was cut in half with a razor blade to yield two halves. The two implants were molded into cylindrical shapes prior to insertion and were positioned bilaterally in the posterolateral space of each test subject. Each implant contained 20 mg Oxy133. Radiographs were taken roughly 10 minutes after the procedure, 4 weeks after the procedure, and 8 weeks after the procedure. […] Fusion was tested at 8-week sacrifice by manual palpation. […] A dry composition of a matrix containing Oxy133, collagen and ceramic as described herein was prepared and wetted with sterile water to be implanted in rat spines as shown in FIG. 6. The wetted matrix was cut in half with a razor blade to yield two halves. The two implants were molded into cylindrical shapes prior to insertion and were positioned bilaterally in the posterolateral space of each test subject. Each implant contained […] Oxy133. Radiographs were taken roughly 10 minutes after the procedure, 4 weeks after the procedure, and 8 weeks after the procedure. […] Fusion was tested at 8-week sacrifice by manual palpation.

Another data set can be described thus: solubility in water. In kind it is physicochemical. The source says:
The Oxy133 can be solubilized in a non-aqueous solvent, such as for example, ethanol and mixed into a solution or suspension. In some embodiments, the Oxy 133 can be filtered by passing the Oxy 133 and solvent through a filter (e.g., 0.22 microns). This will remove bacteria and other larger-size particulates out of the composition. The Oxy 133 used in the composition can be micronized before it is mixed with solvents and other excipients. In various embodiments, the particle size of the Oxy 133 can range from about 1 micron to 250 microns. In some embodiments, the Oxy 133 can have a particle size of from about 5 microns to about 100 microns or from about 20 to 50 microns. The Oxy 133 in the solution or suspension can be added to a slurry of biodegradable polymer and/or the ceramic particles, mixed and, then optionally dried.

For the compound `CCCCCC[C@](C)(O)[C@H]1CC[C@H]2[C@@H]3C[C@H](O)[C@H]4C[C@@H](O)CC[C@]4(C)[C@H]3CC[C@@]21C` [Oxy133, (3S,5S,6S,8R,9S,10R,13S,14S,17S)-17-((S)-2-hydroxyoctan-2-yl)-10,13-dimethylhexadecahydro-1H-cyclopenta [a]phenanthrene-3,6-diol], the “spinal fusion (figure legend)” value in data set [1] (20 mg of Oxy133 on each side, FIG. 6) is “yielded spinal fusion”; in data set [1] (125 mg of Oxy133 on each side, FIG. 7), “yielded spinal fusion”. Also, the “bridging bone on radiographs” value in data set [1] (each implant 20 mg Oxy133) and in data set [1] (each implant 125 mg Oxy133) was “promoted bridging bone across the transverse processes of L3-L5” each time. Also, the “fusion observed in rat spines (manual palpation)” value in data set [1] (each implant 20 mg Oxy133) and in data set [1] (each implant 125 mg Oxy133) was 100% each time. Moreover, in the data set “solubility in water”, the solubility in water result is given as “only slightly soluble or insoluble in water”.
